Four molecules from ChEMBL document CHEMBL1141386, “Metabolites from the Lichen Ochrolechia parella growing under two different heliotropic conditions” (J Nat Prod, 2007) can be followed below.

Structures are written as SMILES. pIC50: −log10 of the molar value.

The experiment deals with B16. In words: Cytotoxicity against murine B16 cells by MTT assay. The format is cell-based. As to conditions: Mus musculus. (Formazan colour is commonly taken as a measure of viable cells.)
For orientation: pIC50 means the IC50 on a negative log10 scale, so that one unit is a factor of ten. `COc1cccc2c1C(=O)c1c(O)c3c(c(O)c1C2=O)C[C@@](O)(C(=O)CO)C[C@@H]3O[C@H]1C[C@H](N)[C@H](O)[C@H](C)O1` [DOXORUBICIN] had a pIC50 of 7.00.

`CCCCCC(=O)Cc1cc(O)cc2c1C(=O)Oc1cc(O)c(C(=O)O)c(CC(=O)CCCCC)c1O2`: the pIC50 was 4.99.

`Cc1cc(O)cc2c1C(=O)Oc1cc3c(c(O)c1O2)C(=O)OC3` [VARIOLARIC ACID] gave a pIC50 of 4.41.

With `CC(C)[C@@H](C)/C=C/[C@@H](C)[C@H]1CC[C@@H]2[C@]1(C)CC[C@H]1[C@]23C=C[C@]2(C[C@@H](O)CC[C@]12C)OO3` [ERGOSTEROL PEROXIDE], the pIC50 is 4.11.
